“And” between values parts separate entries of the source, which are not always exact repeats. Equal entries are not always repeated.
Legend:
PAK2(h) = PAK2(h) (Homo sapiens, UniProt Q13177); assay: Eurofins kinase assay
ATM(h) = ATM(h) (Homo sapiens, UniProt Q13315); assay: Eurofins kinase assay
PAR-1Bα(h) = PAR-1Bα(h) (Homo sapiens, UniProt Q7KZI7); assay: Eurofins kinase assay
PDGFRβ(h) = PDGFRβ(h) (Homo sapiens, UniProt P09619); assay: Eurofins kinase assay
Met(h) = Met(h) (Homo sapiens, UniProt P08581); assay: Eurofins kinase assay
[1] = molecular target: PI3Kinase(p110a(H1047R)/p85a)(m) (Mus musculus, UniProt P42337, H1047R); assay: Eurofins kinase assay
PKA(h) = PKA(h) (Homo sapiens, UniProt P17612); assay: Eurofins kinase assay
Aurora-A(h) = Aurora-A(h) (Homo sapiens, UniProt O14965); assay: Eurofins kinase assay
HCT116 (KRAS G13D) = assay: Cell proliferation assay (CellTiter-Glo); conditions: Homo sapiens, HCT-116, 72 h
Protocol: (§1) To assess cell viability, the CellTiter-Glo Luminescent Cell Viability Assay Reagent (Promega, Fitchburg, WI, USA) was added to each well. The assay measured ATP levels as an indicator of cell viability. All data points were normalized to the control samples treated with dimethyl sulfoxide when determining IC50 values. Statistical calculations and data analysis, including IC50 determination, were performed using GraphPad Prism software.

CHK1(h) = CHK1(h) (Homo sapiens, UniProt O14757); assay: Eurofins kinase assay
Pharmacokinetic study = format: in vivo, C57BL/6 mice
Protocol: Blood samples were collected at each time point for analysis. Plasma samples were analyzed by liquid chromatography–mass spectrometry (LC-MS/MS).

[2] = system: KRAS and BRAF mutant cancer cells (HCT116, LS513, SW620, HT29); assay: Cell growth assay, panel of cell lines; conditions: read-out: IC50 values, cell growth
Protocol: as §1

[3] = 2-week repeated oral DRF study; format: in vivo; conditions: 500 mg/kg oral
LS513 (KRAS G12D) = assay: Cell proliferation assay (CellTiter-Glo); conditions: Homo sapiens, LS-513, 72 h
Protocol: as §1

PKCδ(h) = PKCδ(h) (Homo sapiens, UniProt Q05655); assay: Eurofins kinase assay
[4] = male, C57BL/6, mouse, plasma, iv 5 mg/kg
[5] = male, C57BL/6, mouse, plasma, po 40 mg/kg

PDGFRβ(h), sequence (P09619 33-1106): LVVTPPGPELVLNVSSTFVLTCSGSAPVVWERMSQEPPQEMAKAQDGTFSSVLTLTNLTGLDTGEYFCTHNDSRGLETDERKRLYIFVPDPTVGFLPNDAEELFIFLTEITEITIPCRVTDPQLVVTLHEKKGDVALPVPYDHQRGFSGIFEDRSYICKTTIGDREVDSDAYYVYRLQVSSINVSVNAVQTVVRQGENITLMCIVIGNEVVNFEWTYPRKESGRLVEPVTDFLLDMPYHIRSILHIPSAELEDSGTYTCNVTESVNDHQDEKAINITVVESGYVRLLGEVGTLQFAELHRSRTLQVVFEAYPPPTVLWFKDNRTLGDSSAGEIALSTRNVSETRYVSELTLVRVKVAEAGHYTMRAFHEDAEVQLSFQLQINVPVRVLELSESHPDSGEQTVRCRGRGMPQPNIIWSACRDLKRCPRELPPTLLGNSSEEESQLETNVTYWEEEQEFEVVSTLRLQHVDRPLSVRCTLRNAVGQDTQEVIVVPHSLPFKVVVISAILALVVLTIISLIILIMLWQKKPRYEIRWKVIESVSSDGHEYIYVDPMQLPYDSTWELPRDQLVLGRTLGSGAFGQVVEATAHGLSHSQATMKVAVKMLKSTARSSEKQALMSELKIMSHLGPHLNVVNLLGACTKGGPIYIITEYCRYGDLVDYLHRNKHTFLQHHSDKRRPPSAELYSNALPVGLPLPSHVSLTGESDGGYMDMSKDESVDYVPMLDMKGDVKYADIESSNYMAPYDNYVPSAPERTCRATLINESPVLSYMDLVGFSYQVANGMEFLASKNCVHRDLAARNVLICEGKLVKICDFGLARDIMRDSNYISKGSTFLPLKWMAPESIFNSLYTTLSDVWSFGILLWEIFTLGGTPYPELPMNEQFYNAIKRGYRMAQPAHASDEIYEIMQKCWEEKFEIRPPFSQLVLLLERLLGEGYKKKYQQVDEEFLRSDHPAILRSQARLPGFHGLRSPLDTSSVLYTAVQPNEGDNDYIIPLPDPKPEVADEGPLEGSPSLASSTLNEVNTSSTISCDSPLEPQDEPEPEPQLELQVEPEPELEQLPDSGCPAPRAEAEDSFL
PKCδ(h), sequence (Q05655 whole entry): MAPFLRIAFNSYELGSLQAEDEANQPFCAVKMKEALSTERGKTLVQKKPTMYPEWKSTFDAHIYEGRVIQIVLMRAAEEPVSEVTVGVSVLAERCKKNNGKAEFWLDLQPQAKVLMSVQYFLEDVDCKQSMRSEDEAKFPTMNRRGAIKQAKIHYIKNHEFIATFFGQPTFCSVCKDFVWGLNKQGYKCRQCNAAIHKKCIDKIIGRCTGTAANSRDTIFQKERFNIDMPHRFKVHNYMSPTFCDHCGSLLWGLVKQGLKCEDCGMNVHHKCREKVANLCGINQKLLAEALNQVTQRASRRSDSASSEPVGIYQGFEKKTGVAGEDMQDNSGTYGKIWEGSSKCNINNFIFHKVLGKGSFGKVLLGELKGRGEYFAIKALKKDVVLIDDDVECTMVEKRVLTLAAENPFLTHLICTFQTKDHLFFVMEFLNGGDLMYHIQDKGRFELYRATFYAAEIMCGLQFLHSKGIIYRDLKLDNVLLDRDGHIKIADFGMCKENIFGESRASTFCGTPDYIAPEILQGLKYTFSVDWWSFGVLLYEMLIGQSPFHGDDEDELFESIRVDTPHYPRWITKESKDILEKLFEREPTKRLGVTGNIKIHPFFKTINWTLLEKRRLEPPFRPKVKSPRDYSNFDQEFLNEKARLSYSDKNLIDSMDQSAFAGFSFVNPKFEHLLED
Met(h), sequence (P08581 25-1390): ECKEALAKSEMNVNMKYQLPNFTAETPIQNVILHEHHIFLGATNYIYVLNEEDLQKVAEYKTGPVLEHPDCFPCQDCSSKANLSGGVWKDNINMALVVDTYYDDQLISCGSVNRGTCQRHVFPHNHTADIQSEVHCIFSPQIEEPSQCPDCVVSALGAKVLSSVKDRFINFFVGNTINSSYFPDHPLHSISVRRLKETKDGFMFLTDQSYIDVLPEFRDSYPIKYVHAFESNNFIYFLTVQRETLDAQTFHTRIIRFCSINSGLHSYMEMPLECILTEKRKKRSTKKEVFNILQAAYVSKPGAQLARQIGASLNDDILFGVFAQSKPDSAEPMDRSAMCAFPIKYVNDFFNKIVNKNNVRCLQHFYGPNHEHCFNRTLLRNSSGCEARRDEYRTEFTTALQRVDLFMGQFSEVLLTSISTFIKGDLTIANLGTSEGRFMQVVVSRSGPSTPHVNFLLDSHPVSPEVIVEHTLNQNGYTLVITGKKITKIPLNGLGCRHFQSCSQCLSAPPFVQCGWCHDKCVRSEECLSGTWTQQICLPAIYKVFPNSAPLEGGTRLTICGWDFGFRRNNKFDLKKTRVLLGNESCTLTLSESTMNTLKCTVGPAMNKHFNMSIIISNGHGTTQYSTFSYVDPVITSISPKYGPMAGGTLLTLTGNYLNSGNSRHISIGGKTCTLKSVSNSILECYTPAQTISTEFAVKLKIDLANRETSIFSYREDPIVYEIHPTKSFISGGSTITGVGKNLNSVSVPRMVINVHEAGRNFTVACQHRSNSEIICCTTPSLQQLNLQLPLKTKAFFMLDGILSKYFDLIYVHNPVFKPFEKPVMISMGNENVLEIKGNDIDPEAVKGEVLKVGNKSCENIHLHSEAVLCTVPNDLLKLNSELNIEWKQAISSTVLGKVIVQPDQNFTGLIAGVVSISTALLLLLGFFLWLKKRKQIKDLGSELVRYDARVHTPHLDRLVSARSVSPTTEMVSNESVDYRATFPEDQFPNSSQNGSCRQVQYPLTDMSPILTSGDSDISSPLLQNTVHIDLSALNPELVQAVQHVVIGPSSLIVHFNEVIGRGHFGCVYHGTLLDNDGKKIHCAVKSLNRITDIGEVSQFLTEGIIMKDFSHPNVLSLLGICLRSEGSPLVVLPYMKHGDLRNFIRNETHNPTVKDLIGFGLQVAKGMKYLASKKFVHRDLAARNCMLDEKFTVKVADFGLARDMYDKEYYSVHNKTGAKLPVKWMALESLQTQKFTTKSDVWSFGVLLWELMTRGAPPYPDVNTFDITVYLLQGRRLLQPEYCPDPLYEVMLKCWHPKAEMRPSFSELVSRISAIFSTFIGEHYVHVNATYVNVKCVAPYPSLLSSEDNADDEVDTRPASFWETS
Aurora-A(h), sequence (O14965 whole entry): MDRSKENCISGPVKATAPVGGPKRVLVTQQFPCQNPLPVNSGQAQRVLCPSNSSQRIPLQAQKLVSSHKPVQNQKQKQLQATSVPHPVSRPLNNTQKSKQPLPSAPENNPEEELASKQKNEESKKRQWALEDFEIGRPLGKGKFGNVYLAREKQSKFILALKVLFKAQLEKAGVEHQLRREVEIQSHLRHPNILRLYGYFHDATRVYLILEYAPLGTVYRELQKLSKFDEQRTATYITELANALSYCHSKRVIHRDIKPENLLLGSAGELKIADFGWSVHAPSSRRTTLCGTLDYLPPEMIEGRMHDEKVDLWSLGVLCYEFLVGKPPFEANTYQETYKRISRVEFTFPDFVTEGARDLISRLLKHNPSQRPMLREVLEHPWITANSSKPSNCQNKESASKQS
CHK1(h), sequence (O14757 whole entry): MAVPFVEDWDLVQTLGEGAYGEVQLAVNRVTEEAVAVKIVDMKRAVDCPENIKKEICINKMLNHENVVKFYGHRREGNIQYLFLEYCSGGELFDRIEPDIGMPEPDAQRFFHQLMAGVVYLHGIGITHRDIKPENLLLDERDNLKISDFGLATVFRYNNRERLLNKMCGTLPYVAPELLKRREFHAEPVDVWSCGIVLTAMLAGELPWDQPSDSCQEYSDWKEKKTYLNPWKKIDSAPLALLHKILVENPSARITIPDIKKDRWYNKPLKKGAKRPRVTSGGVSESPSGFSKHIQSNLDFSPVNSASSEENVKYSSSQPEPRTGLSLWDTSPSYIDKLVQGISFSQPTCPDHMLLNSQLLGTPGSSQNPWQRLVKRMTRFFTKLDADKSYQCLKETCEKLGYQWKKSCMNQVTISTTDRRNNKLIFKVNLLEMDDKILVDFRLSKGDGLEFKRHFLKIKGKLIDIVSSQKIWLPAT
PAK2(h), sequence (Q13177 whole entry): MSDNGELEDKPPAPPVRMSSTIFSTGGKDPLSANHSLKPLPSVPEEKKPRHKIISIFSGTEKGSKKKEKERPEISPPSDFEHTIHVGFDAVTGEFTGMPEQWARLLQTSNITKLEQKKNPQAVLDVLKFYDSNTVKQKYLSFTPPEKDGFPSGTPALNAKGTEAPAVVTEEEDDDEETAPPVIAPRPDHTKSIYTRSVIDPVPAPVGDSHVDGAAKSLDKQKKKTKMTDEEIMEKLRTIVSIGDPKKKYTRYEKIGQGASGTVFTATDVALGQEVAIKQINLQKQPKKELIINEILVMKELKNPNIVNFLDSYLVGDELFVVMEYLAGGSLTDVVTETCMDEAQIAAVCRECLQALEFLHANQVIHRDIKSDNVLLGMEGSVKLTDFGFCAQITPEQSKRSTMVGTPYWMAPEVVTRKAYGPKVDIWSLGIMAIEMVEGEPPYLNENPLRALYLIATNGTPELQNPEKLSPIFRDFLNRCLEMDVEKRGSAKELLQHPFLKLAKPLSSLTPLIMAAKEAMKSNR

Work on `O=C(Nc1cc(Nc2ncccc2-c2ncnc3[nH]cnc23)ccc1F)c1cc(C(F)(F)F)cc(C(F)(F)F)c1` [SJ-C1044, N-(5-(3-(9H-purin-6-yl)pyridin-2-ylamino)-2-fluorophenyl)-3,5-bis(trifluoromethyl)benzamide] yielded an inhibition at 10 µM (PAK2(h)) of -1%, an inhibition at 10 µM (ATM(h)) of 12% and an inhibition at 10 µM (PAR-1Bα(h)) of 3%. It also gave an inhibition at 10 µM (PDGFRβ(h)) of 11%, an inhibition at 10 µM (Met(h)) of 13% and an inhibition at 10 µM [1] of 37%. For the same compound, the inhibition at 10 µM (PKA(h)) was -2%, the inhibition at 10 µM (Aurora-A(h)) was 3% and the GI50 (HCT116 (KRAS G13D)) was 160 nM. The inhibition at 10 µM (CHK1(h)) was -2%, the sustained plasma concentration (Pharmacokinetic study; for 16 h per day, 40 mg/kg once daily, 40 mg/kg) was ≥ 8000 ng/mL and ≥ 14 μM and the AUC(0-t) (Pharmacokinetic study; [4]) was 97.8 µg·h/mL. The Cmax (Pharmacokinetic study; [4]) was 11400 ng/mL, the Tmax (Pharmacokinetic study; [4]) was 1.6 h and the AUC(0-t) (Pharmacokinetic study; [5]) was 228 µg·h/mL. For the same compound, the Cmax (Pharmacokinetic study; [5]) was 14900 ng/mL, the Tmax (Pharmacokinetic study; [5]) was 4.3 h and the bioavailability (Pharmacokinetic study; [5]) was 23%. The IC50 [2] was 160 to 628 nM, the “2-week repeated oral toxicity” value [3] was “no indications of toxicity” and the GI50 (LS513 (KRAS G12D)) was 290 nM. For the same compound, the inhibition at 10 µM (PKCδ(h)) was -14%.

Reference: PMC10378394 (Current Issues in Molecular Biology, 2023)
